From patent publication US12146167B2 (priority 2021, dated 2024)

Tests used:
Conditions in all cases: pH 7.5
[1] = tested on: Hn_MetZ (O-succinylhomoserine sulfhydrylase metZ, SEQ ID NO: 14); type: biochemical, Hyphomonas neptunium ATCC 15444
[2] = tested on: Cg_MetY_P2T (O-acetylhomoserine sulfhydrylase variant metY_P2T, SEQ ID NO: 6); type: biochemical, Corynebacterium glutamicum ATCC 13032
[3] = tested on: Cv_MetZ (O-succinylhomoserine sulfhydrylase metZ, SEQ ID NO: 10); type: biochemical, Chromobacterium violaceum ATCC 12472
[4] = tested on: Cg_MetY (O-acetylhomoserine sulfhydrylase metY, SEQ ID NO: 2); type: biochemical, Corynebacterium glutamicum ATCC 13032

Measured: Product

CS [MM, methyl mercaptane]
yes: all assays above
